According to paper PMC10569036:

Assay: shake flask on a mixture of 185; loss from the water phase only; LC-Orbitrap peak areas
Details: room

| SMILES | log partition 1-octanol / HPLC water, unbuffered, traces of methanol / DMSO [log10] | log partition butyl acetate / HPLC water, unbuffered, traces of methanol / DMSO [log10] | log partition chloroform / HPLC water, unbuffered, traces of methanol / DMSO [log10] | log partition cyclohexane / HPLC water, unbuffered, traces of methanol / DMSO [log10] | log partition dichloromethane / HPLC water, unbuffered, traces of methanol / DMSO [log10] | log partition n-hexane / HPLC water, unbuffered, traces of methanol / DMSO [log10] | log partition n-octane / HPLC water, unbuffered, traces of methanol / DMSO [log10] | log partition n-undecane / HPLC water, unbuffered, traces of methanol / DMSO [log10] | log partition oleylalcohol / HPLC water, unbuffered, traces of methanol / DMSO [log10] | log partition toluene / HPLC water, unbuffered, traces of methanol / DMSO [log10] |
| --- | --- | --- | --- | --- | --- | --- | --- | --- | --- | --- |
| O=P(OC(CCl)CCl)(OC(CCl)CCl)OC(CCl)CCl | 0.3708 | 0.4116 | 0.2335 | 0.5355 | 0.1218 | 0.2465 | 0.2541 | 0.3474 | 0.1893 | 0.1777 |
| O=C(OC1CCCCC1)c1ccccc1C(=O)OC1CCCCC1 | 0.6596 | 0.2225 | 0.1245 | -0.9365 | 0.1411 | -0.6432 | -1.045 | -0.8058 | -0.79 | -1.067 |
| CCCCC(CC)COC(=O)c1ccccc1C(=O)O (centres unmarked) | -0.191 | -0.07834 | 0.168 | -0.8356 | 0.3352 | -1.06 | -1.182 | -1.177 | -0.5168 | -0.2474 |
| CCCCCCOc1cc(C)c(O)c(C)c1C | -0.6155 | -0.05403 | 0.3185 | -0.4525 | -0.07725 | -0.4691 | -0.1513 | -0.6506 | 0.4249 | -0.2013 |
| N#CC(c1ccccc1)c1ccccc1 | -0.3597 | 0.2978 | -0.002518 | -0.2823 | 0.1658 | -0.257 | -0.2917 | -0.816 | 0.1292 | 0.1711 |
| COC(=O)c1sccc1S(N)(=O)=O | 1.602 | 1.673 | 1.568 | -1.037 | 1.105 | -1.408 | -1.192 | -1.316 | 0.8181 | 0.3445 |
| CC(=O)Nc1ccc(C)cc1C | 0.5136 | 0.7692 | 0.52 | – | 0.8573 | – | – | – | 0.7926 | 0.01564 |
| CCCC1COC(Cn2cncn2)(c2ccc(Cl)cc2Cl)O1 (centres unmarked) | 0.3483 | 0.1767 | 0.2115 | 0.2977 | 0.2897 | 0.2474 | 0.3088 | 0.1588 | 0.003105 | 0.07569 |
| CN(C)c1ccc(Cc2ccc(N(C)C)cc2)cc1 | 0.3418 | 1.067 | 3.139 | 0.5577 | 2.123 | -0.5531 | 0.3458 | -0.4236 | -0.165 | 1.554 |
| CCCCC(O)(Cn1cncn1)c1ccc(Cl)cc1Cl (centres unmarked) | 3.35 | 5.299 | 1.307 | 3.351 | 4.823 | 2.027 | 2.104 | 2.029 | 3.139 | 4.525 |
| CCOc1ccc2c(c1)C(C)CC(C)(C)N2 (centres unmarked) | 1.166 | 0.4802 | 0.1266 | 0.1355 | 0.03099 | 0.4617 | 0.03342 | 0.09286 | 0.8298 | -0.1412 |
| O=C(O)c1ccccc1C(c1ccc(O)cc1)c1ccc(O)cc1 | -0.6855 | 0.116 | -0.6877 | -1.286 | -0.3134 | -0.9598 | -1.232 | -1.337 | -0.1989 | -0.7201 |
